On the set-up of data set [1]: method as in Anderson et al., 2014. Conditions: ref Anderson et al., 2014; cited from earlier work.
The conditions of data set [2]: plasma.
Procedure: SN30000, M14 and M18 dosing solutions were prepared fresh in normal saline, filtered through 0.45 μm Acrodisc filters (Pall Life Sciences, Port Washington, NY, United States), protected from light in amber vials, and used within 3 h. Doses are expressed as mg of free base equivalent for SN30000 and M14, and free acid in the case of M18. […] For evaluation of acute toxicity, mice were observed continuously for 3 h after dosing, and their activity rated on a lethargy score from 0 representing no change in activity to 5 representing animals that were moribund and required culling. For MTD studies, the animals were checked daily for clinical signs of toxicity and body weight change for 2 weeks. In some studies rectal temperature changes after dosing were measured using a BAT-12 digital microprobe thermometer (Physitemp Instruments, Clifton, NJ, United States) at the times specified in the figures. Blood samples were collected from mice at various times by cardiac puncture, seconds after cervical dislocation, into ice-cold tubes containing K2EDTA. These were placed on ice immediately after collection and centrifuged (3,000 g, 3 min) within 10 min to harvest plasma. Plasma and tissues were rapidly frozen in liquid nitrogen before storage at -80°C for subsequent bioanalysis.
Concentration-time data were analyzed by non-compartmental analysis using Phoenix WinNonlin (ver 6.4, Build 6.4.0768 Pharsight, United States); all AUC values were extrapolated to infinity using the linear trapezoidal rule. A compartmental model for plasma PK after dosing with SN30000 or M14 was fitted using Phoenix NLME v1.3 with random effects on the metabolite volumes of distribution, and temperature effects based on the observed body temperature at the last measurement time. Temperature effects were added or removed until there was no significant change in the log likelihood. Model fits were further assessed by visual inspection of the residuals and predicted PK.
The test system of data set [3] is NIH-III mice. From the text: SUPPLEMTENTAL TABLE 7. Mouse toxicity of SN30000 and M14: Histopathology […]
Male and female NIH-III mice aged 6-10 weeks were given a single i.p. dose of SN30000 (186, 248 […]
untreated control for each sex, fixed in 10% neutral buffered formalin at room temperature for 24-48 hr, transferred to 70% ethanol and subsequently paraffin embedded, sectioned and H&E stained for light microscopy . The following tissues/organs were examined: skin, testes, eyeball, brain, liver, lung, stomach, duodenum, heart, spleen, pancreas, colon, femur and joint (incl marrow), skeletal muscle (psoas) and kidney. Results are reported only for positive findings.

The source of these data is publication PMC5554537 (Frontiers in Pharmacology, 2017).

Where two headings read alike, the source gives them in different places.

For `[O-][n+]1nc(CCCN2CCOCC2)nc2cc3c(cc21)CCC3` [M14], the “One-electron reduction potential, lower than SN30000 by” value in data set [1] is listed as 70 mV.
For `[O-][n+]1nc(CCCN2CCOCC2)[n+]([O-])c2cc3c(cc21)CCC3` [SN30000, 3-(3-Morpholinopropyl)-7,8-dihydro-6H-indeno[5,6-e][1,2,4]triazine 1,4-dioxide], the “Apparent Cl” value in data set [2] (i.p. SN30000 1.86 mg/kg) was 553 mL/min/kg; in data set [2] (i.p. SN30000 18.6 mg/kg), 447 mL/min/kg; in data set [2] (i.p. SN30000 78.3 mg/kg) it was 126 mL/min/kg; in data set [2] (i.p. SN30000 92.8 mg/kg), 95 mL/min/kg; in data set [2] (i.p. SN30000 186 mg/kg) it was 59.2 mL/min/kg. For the same compound, the “Histopathology findings, Kidney” value is recorded as “Basophilic cortical tubules (2); karyomegaly in tubular epithelium (3); tubular epithelial necrosis (3)” in data set [3] (186 mg/kg i.p., female, 3 examined); “Basophilic cortical tubules (2); karyomegaly in tubular epithelium (2); tubular epithelial necrosis (2)” in data set [3] (248 mg/kg i.p., female, 2 examined); “Basophilic cortical tubules (1); karyomegaly in tubular epithelium (1); tubular epithelial necrosis (1)” in data set [3] (248 mg/kg i.p., male, 2 examined); “Basophilic cortical tubules (1); karyomegaly in tubular epithelium (1); tubular epithelial necrosis (1)” in data set [3] (331 mg/kg i.p., male, 1 examined). In addition, the “Histopathology findings, Testes” value in data set [3] (248 mg/kg i.p., male, 1 examined) was “Degeneration of germinal epithelium (1)”.
